Earlier results, collected in US20050273047A1, “System and method for transdermal delivery of an anticoagulant” (priority 2004, published 2005).

Target: Factor Xa (Homo sapiens, UniProt P00742)
Settings: as compared to the corresponding methyl ester; cited from earlier work

Factor Xa, sequence (P00742 235-488 limits assumed): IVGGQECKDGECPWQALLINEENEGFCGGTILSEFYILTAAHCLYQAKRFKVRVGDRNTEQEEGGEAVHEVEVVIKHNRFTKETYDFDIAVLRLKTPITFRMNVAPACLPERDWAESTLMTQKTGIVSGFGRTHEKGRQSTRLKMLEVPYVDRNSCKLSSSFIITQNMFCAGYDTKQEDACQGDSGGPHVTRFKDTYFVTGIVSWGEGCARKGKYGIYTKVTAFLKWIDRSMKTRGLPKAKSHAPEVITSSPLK
Factor Xa, sequence (P00742 41-179 partner limits assumed): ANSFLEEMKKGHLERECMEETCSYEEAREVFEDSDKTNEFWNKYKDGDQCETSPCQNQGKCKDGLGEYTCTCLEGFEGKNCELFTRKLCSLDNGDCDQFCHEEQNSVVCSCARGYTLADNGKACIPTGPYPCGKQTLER

In the case of CC(=N)N1CC[C@H](Oc2ccc([C@H](Cc3ccc4ccc(C(=N)N)cc4c3)C(=O)O)cc2)C1 [compound shown in FIG. 7], the “enhancement of Factor Xa selectivity by the carboxylic acid” value is given as “about 100 fold”.
